Assay results: ChEMBL document CHEMBL1144776, “Anti-inflammatory constituents of the red alga Gracilaria verrucosa and their synthetic analogues” (J Nat Prod, 2008)
Calls of active or inactive are those of the source. The calls are words filed in the database; no cut-off is given here.

What was measured:
Assay type in all cases: functional, cell-based
RAW264.7 [1] = test: Antiinflammatory activity in mouse RAW264.7 cells assessed as inhibition of LPS-stimulated NO production at 5 to 20 ug/mL after 24 hrs by […]
RAW264.7 [2] = test: Antiinflammatory activity in mouse RAW264.7 cells assessed as inhibition of LPS-stimulated nitric oxide production after 24 hrs by […]; conditions: RAW264.7, 24 h
RAW264.7 [3] = test: Suppression of iNOS mRNA expression in mouse RAW264.7 cells

SMILES: CCCCCCC/C=C(\C(=O)CCCCCCCC(=O)OC)c1ccccc1
- Activity (RAW264.7 [1]): inactive

SMILES: CCCCCCC/C=C(\C(=O)CCCCCCCC(=O)O)c1ccccc1
- Activity (RAW264.7 [1]): inactive

SMILES: CCCCCCC/C=C/C(=O)CCCCCCCC(=O)O
- IC50 (RAW264.7 [2]): < 33.8 µM
- Activity (RAW264.7 [3]): Active

SMILES: CCCCCCCC/C=C(\C(=O)CCCCCCC(=O)O)c1ccccc1
- Activity (RAW264.7 [1]): inactive

SMILES: CCCCCCCC(=O)/C(=C\CCCCCCCC(=O)OC)c1ccccc1
- Activity (RAW264.7 [1]): inactive

SMILES: CCCCCCCCC(=O)/C=C/CCCCCCC(=O)O
- IC50 (RAW264.7 [2]): < 33.8 µM
- Activity (RAW264.7 [3]): Active
